Data as given in patent US12617771B2, “Diphenylpyrazole compound, and preparation method therefor and application thereof” (NORTHWEST A&F UNIVERSITY, priority 2021, dated 2026).

Legend:
Assay type in all cases: biochemical
Spodoptera litura GSTs = assay: Inhibition of total GSTs enzyme of Spodoptera litura (CDNB method)
Method: (§1) Experiment: About 50 mg of larvae/nymphs of nine major pests such as Plutella xylostella, Mythimna separata, Pyrausta nubilalis, Chilo suppressalis, Nilaparvata lugens, Spodoptera frugiperda, Helicoverpa armigera, Carposina sasakii, Spodoptera litura were taken, grounded in a mortar pre-cooled at −80° C., and then 1 mL of 100 mM sodium phosphate buffer (1 mM EDTA, pH 7.2) was added and fully homogenized. The homogenate was transferred to a 1.5 mL centrifuge tube at 4° C., and centrifuged at 14,000 g for 30 minutes, and the supernatant was transferred to a new centrifuge tube as the GSTs total enzyme. The protein concentrations of the above total enzymes were determined using the BCA method.
(§2) 100 μL of PBS buffer (100 mM, pH 7.2) containing 1 mM GSH was taken and placed in a 96-well plate, 5 μg of insect total GSTs enzymes and an appropriate concentration of compounds PXG1-PXG29 (29 compounds) of the present invention were added to each well, after uniformly mixing, and allowed to stand at 30° C. for 10 min. Then 100 μL of PBS buffer (100 mM, pH 7.2) containing 1 mM CDNB was added to each well. Immediately after mixing, the mixture was placed in a microplate reader to measure the absorbance at a wavelength of 340 nm (A 340) once every 1 min, the measurement was carried out continuously for 5 min, the light absorption values of each measuring point were recorded and the inhibition rate in vitro of the compounds with different concentrations against insects total GSTs enzymes were calculated. Each group of assays was repeated three times, and total GSTs enzymes inactivated at 100° C. for 5 min were used as negative controls, and GTX was used as positive controls. GraphPad Prism 5 software was used for analysis and calculation of IC50. Relative inhibition was calculated using the following formula:
(§3) [formula] • wherein, A340 is the change of A340 within 5 minutes for the control group, and A340t is the change of A340 within 5 minutes for the experimental group.

Nilaparvata lugens GSTs = assay: Inhibition of total GSTs enzyme of Nilaparvata lugens (CDNB method)
Method: as §1, §2, §3

PxGSTσ2 = PxGSTσ2 (Plutella xylostella, UniProt Q6F443); assay: Inhibition of PxGSTσ2 recombinant protein; details: read-out: 100 μM Inhibition rate %
Method: (§4) Experiment: 100 μL of PBS buffer (100 mM, pH 7.2) was taken and added to a 96-well plate, 1 μg of PxGSTs recombinant protein and an appropriate concentration of the compounds PXG1-PXG29 of the present invention were added to each well, after uniformly mixing, and allowed to stand at 30° C. for 10 min. Then 100 μL of PBS buffer (100 mM, pH 7.2) containing 1 mM CDNB and 1 mM GSH was successively added to each well. Immediately after mixing, the mixture was placed in a microplate reader to measure the absorbance at a wavelength of 340 nm (A340) once every 1 min, the measurement was continued for 5 min, the light absorption values of each measuring point were recorded and the inhibition rate in vitro of the compounds PXG1-PXG29 of the present invention with different concentrations against PxGSTs recombinant protein were calculated. Each group of assays was repeated three times, and PxGSTs recombinant protein inactivated at 100° C. for 5 min was used as negative control, and GTX was used as positive control. GraphPad Prism 5 software was used for analysis and calculation of IC50. Relative inhibition was calculated using the following formula:
(§5) [formula] • wherein, A340c is the change of A340 […] the control group, an A340t is the change of A340 within 5 minutes for the experimental group.

PxGSTε3 = PxGSTε3 (Plutella xylostella, UniProt O77409); assay: Inhibition of PxGSTε3 recombinant protein; details: read-out: 100 μM Inhibition rate %
Method: as §4, §5

Pyrausta nubilalis GSTs = assay: Inhibition of total GSTs enzyme of Pyrausta nubilalis (CDNB method)
Method: as §1, §2, §3

[1] = target: Spodoptera frugiperda GSTs; assay: Inhibition of total GSTs enzyme of Spodoptera frugiperda (CDNB method)
Method: as §1, §2, §3

Chilo suppressalis GSTs = assay: Inhibition of total GSTs enzyme of Chilo suppressalis (CDNB method)
Method: as §1, §2, §3

PxGSTσ1 = PxGSTσ1 (Plutella xylostella, UniProt Q6F436); assay: Inhibition of PxGSTσ1 recombinant protein; details: read-out: 100 μM Inhibition rate %
Method: as §4, §5

[2] = target: Helicoverpa armigera GSTs; assay: Inhibition of total GSTs enzyme of Helicoverpa armigera (CDNB method)
Method: as §1, §2, §3

PxGSTδ1 = PxGSTδ1 (Plutella xylostella, UniProt D7URW9); assay: Inhibition of PxGSTδ1 recombinant protein; details: read-out: 100 μM Inhibition rate %
Method: as §4, §5

Mythimna separata GSTs = assay: Inhibition of total GSTs enzyme of Mythimna separata (CDNB method)
Method: as §1, §2, §3

Plutella xylostella GSTs = assay: Inhibition of total GSTs enzyme of Plutella xylostella (CDNB method)
Method: as §1, §2, §3

Carposina sasakii GSTs = assay: Inhibition of total GSTs enzyme of Carposina sasakii (CDNB method)
Method: as §1, §2, §3

PxGSTσ2, sequence (Q6F443 entry or part of it): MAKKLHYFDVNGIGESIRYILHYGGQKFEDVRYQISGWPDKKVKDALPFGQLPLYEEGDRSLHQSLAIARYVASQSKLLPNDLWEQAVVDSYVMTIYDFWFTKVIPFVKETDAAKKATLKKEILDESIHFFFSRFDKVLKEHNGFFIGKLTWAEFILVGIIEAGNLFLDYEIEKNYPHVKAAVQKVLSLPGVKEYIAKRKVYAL
PxGSTδ1, sequence (D7URW9 entry or part of it): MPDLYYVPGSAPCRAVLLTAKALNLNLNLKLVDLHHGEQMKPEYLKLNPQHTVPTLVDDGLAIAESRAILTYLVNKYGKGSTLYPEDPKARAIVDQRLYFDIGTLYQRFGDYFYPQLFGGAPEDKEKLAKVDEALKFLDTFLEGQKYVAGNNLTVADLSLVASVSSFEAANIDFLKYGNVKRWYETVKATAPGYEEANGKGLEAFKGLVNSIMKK
PxGSTσ1, sequence (Q6F436 entry or part of it): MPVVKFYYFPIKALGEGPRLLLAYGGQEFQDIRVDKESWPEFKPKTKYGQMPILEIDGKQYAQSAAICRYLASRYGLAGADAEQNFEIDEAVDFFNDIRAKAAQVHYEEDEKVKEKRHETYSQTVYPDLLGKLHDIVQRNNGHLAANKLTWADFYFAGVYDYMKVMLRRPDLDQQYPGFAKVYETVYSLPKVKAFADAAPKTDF
PxGSTε3, sequence (O77409 entry or part of it): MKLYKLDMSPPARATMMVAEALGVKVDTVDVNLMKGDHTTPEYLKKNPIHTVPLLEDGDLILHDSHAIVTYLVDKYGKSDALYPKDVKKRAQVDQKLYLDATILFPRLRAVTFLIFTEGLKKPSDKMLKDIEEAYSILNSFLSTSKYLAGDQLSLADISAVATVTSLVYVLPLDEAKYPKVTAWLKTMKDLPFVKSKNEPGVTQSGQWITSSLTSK

Structure (SMILES) | IC50 (Spodoptera litura GSTs) [µM] | 100 μM Inhibition rate % (Spodoptera litura GSTs) [%] | IC50 (Nilaparvata lugens GSTs) [µM] | 100 μM Inhibition rate % (Nilaparvata lugens GSTs) [%] | inhibition at 100 µM (PxGSTσ2) [%] | inhibition at 100 µM (PxGSTε3) [%] | IC50 (Pyrausta nubilalis GSTs) [µM] | 100 μM Inhibition rate % (Pyrausta nubilalis GSTs) [%] | IC50 [1] [µM] | 100 μM Inhibition rate % [1] [%] | IC50 (Chilo suppressalis GSTs) [µM] | 100 μM Inhibition rate % (Chilo suppressalis GSTs) [%] | inhibition at 100 µM (PxGSTσ1) [%] | IC50 [2] [µM] | 100 μM Inhibition rate % [2] [%] | inhibition at 100 µM (PxGSTδ1) [%] | IC50 (Mythimna separata GSTs) [µM] | 100 μM Inhibition rate % (Mythimna separata GSTs) [%] | IC50 (Plutella xylostella GSTs) [µM] | 100 μM Inhibition rate % (Plutella xylostella GSTs) [%] | other results
O=C(COc1ccccc1)NNC(=O)c1cc(-c2ccccc2)nn1-c1ccccc1 [PXG5, N′-(1,3-diphenyl-1H-pyrazol-5-yl-carbonyl)-2-phenoxyacetohydrazide] | > 100 | 37.80 | > 100 | 23.90 | 24.5 | -2.97 | > 100 | 14.08 | > 100 | 31.42 | > 100 | 28.17 | 35.6 | > 100 | 9.57 | 81.7 | > 100 | 47.24 | > 100 | 11.58 | IC50 (Carposina sasakii GSTs): > 100 µM; 100 μM Inhibition rate % (Carposina sasakii GSTs): 23.22%
O=C(NN1C(=O)NC2(CCCCC2)C1=O)c1cc(-c2ccccc2)nn1-c1ccccc1 [PXG6] | > 100 | 6.90 | > 100 | −1.46 | 33.6 | 4.85 | > 100 | 13.70 | > 100 | 11.37 | > 100 | 15.98 | 49.1 | > 100 | 23.21 | 12.2 | > 100 | 38.85 | > 100 | 21.15 | IC50 (Carposina sasakii GSTs): > 100 µM; 100 μM Inhibition rate % (Carposina sasakii GSTs): 18.21%
CN(C)S(=O)(=O)c1cccc(C(=O)NNC(=O)c2cc(-c3ccccc3)nn2-c2ccccc2)c1 [PXG9, 3-[N′-(1,3-diphenyl-1H-pyrazol-5-yl-carbonyl) hydrazinocarbonyl]-N,N-dimethylphenyl-1-sulfonamide] | > 100 | 12.58 | > 100 | −10.48 | 31.4 | -3.88 | > 100 | 5.71 | > 100 | 5.56 | > 100 | 34.79 | 28.6 | > 100 | 5.25 | 30.4 | > 100 | 2.72 | > 100 | 3.94 | IC50 (Carposina sasakii GSTs): > 100 µM; 100 μM Inhibition rate % (Carposina sasakii GSTs): 12.55%
COc1ccccc1CC(=O)NNC(=O)c1cc(-c2ccccc2)nn1-c1ccccc1 [PXG10, N′-(1,3-diphenyl-1H-pyrazol-5-yl-carbonyl)-2-(2-methoxyphenyl) acetohydrazide] | > 100 | 3.87 | > 100 | 19.24 | 19.2 | 2.03 | > 100 | −3.85 | > 100 | 20.93 | > 100 | 5.85 | 29.4 | > 100 | 9.75 | 91 | > 100 | −2.50 | > 100 | −17.71 | IC50 (Carposina sasakii GSTs): > 100 µM; 100 μM Inhibition rate % (Carposina sasakii GSTs): 32.54%
O=C(NNC(=O)c1cc(-c2ccccc2)nn1-c1ccccc1)c1ccccc1 [PXG11, N′-(1,3-diphenyl-1H-pyrazol-5-yl-carbonyl) benzohydrazine] | > 100 | 24.52 | > 100 | 8.16 | 22.6 | -7.28 | > 100 | 23.84 | > 100 | 20.95 | > 100 | 54.79 | 60.7 | > 100 | 8.09 | 35.3 | > 100 | 31.76 | > 100 | 22.90 | IC50 (Carposina sasakii GSTs): > 100 µM; 100 μM Inhibition rate % (Carposina sasakii GSTs): 76.09%
CC1(c2ccccc2)NC(=O)N(NC(=O)c2cc(-c3ccccc3)nn2-c2ccccc2)C1=O (centres unmarked) [PXG12, N-(4-methyl-2,5-dioxo-4-phenylimidazolin-1-yl)-1,3-diphenyl-1H-pyrazol-5-yl-carboxamide] | > 100 | 4.60 | > 100 | −3.30 | 33.6 | 10.9 | > 100 | 19.48 | > 100 | 12.52 | > 100 | 29.54 | 48.3 | > 100 | −5.00 | 40.2 | > 100 | 19.42 | > 100 | 15.08 | IC50 (Carposina sasakii GSTs): > 100 µM; 100 μM Inhibition rate % (Carposina sasakii GSTs): 17.94%
CC1(CCc2ccccc2)NC(=O)N(NC(=O)c2cc(-c3ccccc3)nn2-c2ccccc2)C1=O (centres unmarked) [PXG15, N-[4-methyl-2,5-dioxo-4-(2-phenylethyl)imidazolin-1-yl]-1,3-diphenyl-1H-pyrazol-5-yl-carboxamide] | > 100 | −5.22 | > 100 | 2.97 | 25.6 | 4.62 | > 100 | 4.69 | > 100 | 0.41 | > 100 | 18.72 | 42.5 | > 100 | −1.48 | 7.86 | > 100 | 4.29 | > 100 | 16.83 | IC50 (Carposina sasakii GSTs): > 100 µM; 100 μM Inhibition rate % (Carposina sasakii GSTs): 17.01%
CC1CCC2(CC1)NC(=O)N(NC(=O)c1cc(-c3ccccc3)nn1-c1ccccc1)C2=O (centres unmarked) [PXG16, N-{8-methyl-2,4-dioxo-1,3-diazaspiro[4.5]dec-3-yl}-1,3-diphenyl-1H-pyrazol-5-yl-carboxamide] | > 100 | −0.15 | > 100 | −1.00 | 39.3 | 4.12 | > 100 | 0.41 | > 100 | −1.72 | > 100 | 10.53 | 70.5 | > 100 | 2.28 | 5.35 | > 100 | 10.50 | > 100 | 8.64 | IC50 (Carposina sasakii GSTs): > 100 µM; 100 μM Inhibition rate % (Carposina sasakii GSTs): 6.98%
